Where two headings read alike, the source gives them in different places. Square brackets hold non-standard residues; d marks the D form. Peptide text beside a SMILES is read from it. * marks the point of attachment. X1 = COc1cccc2c1C(=O)c1c(O)c3c(c(O)c1C2=O)C[C@@](O)(C(CO)=NNC(=O)CCCCCN1C(=O)CC(*)C1=O)C[C@@H]3O[C@H]1C[C@H](N)[C@H](O)[C@H](C)O1; Pra = C#CC[C@H](N)C(=O)O

The values that follow come from publication PMC12442009, “Self-Assembling Cyclic Peptide Nanotubes for the Delivery of Doxorubicin into Drug-Resistant Cancer Cells” (ACS Applied Materials & Interfaces, 2025).

The subject of data set [1] is MCF-7 (breast cancer cell line). As to the kind of experiment: MTT cell growth inhibition, MCF-7. Format: cell-based. The note with it: MCF-7, 96 h incubation, MTT; for IC50: 50% growth inhibition, calculated only if E max > 50%, read-out: IC50; for E max (% inhibition): inhibition at highest concentration tested (100 μM), triplicate points.
Protocol: (§1) The cell growth inhibition of each compound was evaluated using the MTT (3-[4,5-dimethylthiazol-2-yl]-2,5-diphenyltetrazolium bromide) assay. MCF-7 and MRC-5 cells were grown on a Minimum Essential Medium Eagle, while NCI-H460 and NCI/ADR-RES cells were grown on RPMI 1640 culture medium. All culture mediums were supplemented with 10% FBS (fetal bovine serum) and 1% penicillin-streptomycin-glutamine mix. […] MCF-7 (100,000 cells/mL), NCI-H460 (150,000 cells/mL), NCI/ADR-RES (150,000 cells/mL), or MRC-5 (100,000 cells/mL) cells were seeded the day before in sterile 96-well plates (100 μL/well). Then, cells were incubated with each concentration of the compound (100 μL/well) for the specified time for each cell line. The compounds were previously dissolved in DMSO and diluted at the time of the experiment with complete medium to the concentration to be tested. The DMSO content of each well was maintained at less than 1%. All concentrations were carried out with triplicate points, and controls with DMSO at the same proportion in which the compounds were dissolved were included in all experiments. After the incubation time, the samples were removed, and 100 μL of complete medium with 0.5 mg/mL MTT was added to each well. Cells were incubated for 4 h, and the medium was removed. The resulting formazan crystals were dissolved in DMSO (100 μL/well). The absorbance of each well at 595 nm was acquired with a Tecan Infinite F200Pro plate reader. A blank subtraction was performed (cells treated with Triton X-100), and the data were normalized to the value of the untreated cells (100% viability). Data were analyzed with GraphPad Prism software.
In data set [2] the test system is NCI/ADR-RES (doxorubicin-resistant ovarian cancer cell line). As to the kind of experiment: MTT cell growth inhibition, NCI/ADR-RES. Format: cell-based. As to conditions: NCI/ADR-RES, MTT; for E max (% inhibition): inhibition at highest concentration tested (100 μM); for IC50: calculated only if E max > 50%, read-out: IC50.
Protocol: as §1
Data set [3] is described as follows: Hydrazone stability / DOX release followed by mass spectrometry. As to conditions: 200 μM; for stability (DOX release) at pH 5.0: pH 5.0 (10 mM citrate buffer), followed over 72 h; for stability (DOX release) at physiological pH: pH 7.0 (H2O), 72 h. Format: physicochemical.
Data set [4] deals with NCI-H460 (lung cancer cell line). The note with it: NCI-H460, 48 h incubation, MTT; for IC50: calculated only if E max > 50%; for E max (% inhibition): inhibition at highest concentration tested (100 μM).
Protocol: as §1
The subject of data set [5] is NCI/ADR-RES cells. As to the kind of experiment: Confocal microscopy internalization and colocalization. The note with it: 50 μM, 2 h.
Data set [6] concerns NCI/ADR-RES cells. As to the kind of experiment: Cell uptake by RP-HPLC of cell lysates. The note with it: 100 μM, 120 min, 37 °C minus 4 °C, ACN/H2O extraction, RP-HPLC 460 nm, normalized vs initial concentration incubated.
Protocol: NCI/ADR-RES cells (10^6) were seeded in T-25 Flasks. After 24 h, the medium was removed, and a solution of DOX or CP1T NBD -DOX (100 μM) in culture medium (7 mL) was added. The cells were incubated for 120 min at 37 °C under a CO2 atmosphere (5%). Then, the medium was removed, and the cells were washed with cold PBS (3 × 3 mL). After washing, a mixture of ACN/H2O (1.5 mL, 80:20) was added to the flask and incubated overnight at 4 °C. Solvent samples were transferred to 1.5 mL Eppendorf and centrifuged at 12,000 g for 15 min at 4 °C, and the supernatant was evaporated to dryness. Analogous experiments were carried out by incubating the compounds at 4 °C for 120 min to determine the nonspecific binding to the cell membrane, since the uptake is decreased at this temperature. To evaluate the efficiency of solvent extraction, 10^6 cells were seeded in a T-25 Flask. […] The resulting lysates were analyzed by RP-HPLC by dissolving the Eppendorf samples in an aqueous solution of TFA (1%, 100 μL). All of the intracellular compound quantities were calculated from the detected area and divided by the efficiency of solvent extraction. Cell uptake was calculated by subtracting the intracellular compound quantity from the assay carried out at 37 °C from the quantity obtained at 4 °C and normalized to 100% vs the initial concentration incubated.
Data set [7] relates to MRC-5 (human embryonic lung cell line). As to the kind of experiment: MTT cytotoxicity in noncancerous fibroblasts MRC-5. The note with it: MRC-5 fibroblasts, 7 days incubation. Type of data set: cell-based.
Data set [8] relates to NCI-H460 (lung cancer cell line). Kind of data set: cells. The note with it: Homo sapiens, NCI-H460, 48 h.
Protocol: as §1

For `C#CC[C@@H]1NC(=O)[C@@H](Cc2c[nH]c3ccccc23)NC(=O)[C@H](CO)NC(=O)[C@@H](CCCCN)NC(=O)[C@H](CO)NC(=O)[C@@H](CSC2CC(=O)N(CCCCCC(=O)NN=C(CO)[C@]3(O)Cc4c(O)c5c(c(O)c4[C@@H](O[C@H]4C[C@H](N)[C@H](O)[C@H](C)O4)C3)C(=O)c3c(OC)cccc3C5=O)C2=O)NC(=O)[C@H](CCC(N)=O)NC(=O)[C@@H](CCCCN)NC1=O` (some centres unmarked) [CP1-DOX] (cyclo(Q[dC](X1)S[dK]S[dW][Pra][dK])), in data set [1], the IC50 is 3.5 ± 0.3 µM and the “E max (% inhibition)” value worked out at 81 ± 1 % inhibition. Further, the “E max (% inhibition)” value in data set [2] (72 h incubation) was 22 ± 4 % inhibition. Moreover, in data set [3], the “stability (DOX release) at pH 5.0” value is given as “drug release was observed after 72 h under these conditions, although part of the cyclic peptide conjugate survived after this time” and the “stability (DOX release) at physiological pH” value was “much more stable at physiological pH, with a small release of the drug after 72 h”. For the same compound, in data set [4], the concentration for half-maximal inhibition (IC50) was 2.8 ± 0.1 µM and the “E max (% inhibition)” value is on record as 75 ± 1 % inhibition. In addition, in the data set on NCI/ADR-RES cells [5], the “cell internalization / localization by confocal microscopy” value (“cell internalization / localization” for short) is “mainly trapped in small compartments of the cytoplasm”.
With `CCCCCCCCCCn1cc(C[C@@H]2NC(=O)[C@@H](Cc3c[nH]c4ccccc34)NC(=O)[C@H](CO)NC(=O)[C@@H](CCCCN)NC(=O)[C@H](CO)NC(=O)[C@@H](CSC3CC(=O)N(CCCCCC(=O)NN=C(CO)[C@]4(O)Cc5c(O)c6c(c(O)c5[C@@H](O[C@H]5C[C@H](N)[C@H](O)[C@H](C)O5)C4)C(=O)c4c(OC)cccc4C6=O)C3=O)NC(=O)[C@H](CCC(N)=O)NC(=O)[C@@H](CCCCN)NC2=O)nn1` (some centres unmarked) [CP1T10-DOX], the concentration for half-maximal inhibition (IC50) in data set [1] was 3.4 ± 0.4 µM; in data set [2] (48 h incubation) it was 38.4 ± 0.7 µM; in data set [2] (72 h incubation), 10.8 ± 1.7 µM; in data set [4], 3.1 ± 0.1 µM. The “E max (% inhibition)” value in data set [1] is 89 ± 1 % inhibition; in data set [2] (72 h incubation), 84 ± 3 % inhibition; in data set [4], 93 ± 1 % inhibition. Besides, the “stability (DOX release) at pH 5.0” value in data set [3] is given as “the molecular ion corresponding to the drug is still very minor after this time”. The “stability (DOX release) at physiological pH” value in data set [3] is “much more stable at physiological pH, with a small release of the drug after 72 h”. Besides, the “cell internalization / localization” value in the data set on NCI/ADR-RES cells [5] is reported as “cells with a colored nucleus”.
On to `COc1cccc2c1C(=O)c1c(O)c3c(c(O)c1C2=O)C[C@@](O)(C(CO)=NNC(=O)CCCCCN1C(=O)CC(SC[C@H]2NC(=O)[C@H](CCC(N)=O)NC(=O)[C@@H](CCCCN)NC(=O)[C@H](Cc4cn(CCCCC(=O)NCCNc5ccc([N+](=O)[O-])c6nonc56)nn4)NC(=O)[C@@H](Cc4c[nH]c5ccccc45)NC(=O)[C@H](CO)NC(=O)[C@@H](CCCCN)NC(=O)[C@H](CO)NC2=O)C1=O)C[C@@H]3O[C@H]1C[C@H](N)[C@H](O)[C@H](C)O1` (some centres unmarked) [CP1T NBD -DOX], for which, in data set [2] (48 h incubation), the “E max (% inhibition)” value is on record as 30 ± 3 % inhibition. In addition, the half-inhibitory concentration (IC50) in data set [2] (72 h incubation) was 3.7 ± 0.2 µM. For the same compound, the cell uptake in the data set on NCI/ADR-RES cells [6] was 56.34%.
Take `C#CC[C@@H]1NC(=O)[C@@H](Cc2c[nH]c3ccccc23)NC(=O)[C@H](CO)NC(=O)[C@@H](CSC2CC(=O)N(CCCCCC(=O)NN=C(CO)[C@]3(O)Cc4c(O)c5c(c(O)c4[C@@H](O[C@H]4C[C@H](N)[C@H](O)[C@H](C)O4)C3)C(=O)c3c(OC)cccc3C5=O)C2=O)NC(=O)[C@H](CO)NC(=O)[C@@H](CCCNC(=N)N)NC(=O)[C@H](CCC(N)=O)NC(=O)[C@@H](CCCCN)NC1=O` (some centres unmarked) [CP2-DOX] (cyclo(Q[dR]S[dC](X1)S[dW][Pra][dK])): the IC50 in data set [1] is 1.8 ± 0.2 µM; in data set [4], 2.9 ± 0.3 µM. Further, the “E max (% inhibition)” value was determined as 80 ± 1 % inhibition in data set [1], 13 ± 1 % inhibition in data set [2] (72 h incubation) and 92 ± 1 % inhibition in data set [4]. For the same compound, the “cell internalization / localization” value in the data set with NCI/ADR-RES cells [5] was “minimum cell internalization”.
As for `CCCCCCCCCCn1cc(C[C@@H]2NC(=O)[C@@H](Cc3c[nH]c4ccccc34)NC(=O)[C@H](CO)NC(=O)[C@@H](CSC3CC(=O)N(CCCCCC(=O)NN=C(CO)[C@]4(O)Cc5c(O)c6c(c(O)c5[C@@H](O[C@H]5C[C@H](N)[C@H](O)[C@H](C)O5)C4)C(=O)c4c(OC)cccc4C6=O)C3=O)NC(=O)[C@H](CO)NC(=O)[C@@H](CCCNC(=N)N)NC(=O)[C@H](CCC(N)=O)NC(=O)[C@@H](CCCCN)NC2=O)nn1` (some centres unmarked) [CP2T10-DOX], the IC50 in data set [1] is 2.6 ± 0.3 µM; in data set [2] (48 h incubation), 33.4 ± 0.3 µM; in data set [2] (72 h incubation) it was 21.8 ± 6.4 µM; in data set [4], 1.7 ± 0.1 µM. The results for the “E max (% inhibition)” value in data set [1], in data set [2] (72 h incubation) and in data set [4] were 88 ± 1 % inhibition, 64 ± 7 % inhibition and 93 ± 1 % inhibition, respectively. The “cell internalization / localization” value with NCI/ADR-RES cells [5] is reported as “cells with a colored nucleus”.
In the case of `COc1cccc2c1C(=O)c1c(O)c3c(c(O)c1C2=O)C[C@@](O)(C(=O)CO)C[C@@H]3O[C@H]1C[C@H](N)[C@H](O)[C@H](C)O1` [DOX, doxorubicin], the IC50 is 0.82 ± 0.1 µM in data set [1] (Homo sapiens, MCF7) and 9.3 ± 1.7 µM in data set [8]. The “E max (% inhibition)” value in data set [1] was 86 ± 1 % inhibition; in data set [2] (48 h incubation), 36 ± 4 % inhibition; in data set [2] (48 h incubation, listed as doxorubicin), 36 % inhibition; in data set [4], 56 ± 1 % inhibition. Moreover, in data set [7], the “cytotoxicity in MRC-5” value is recorded as “significant cytotoxicity”. Further, in the data set with NCI/ADR-RES cells [6], the cell uptake is 21.56%. The “cell internalization / localization” value in the data set on NCI/ADR-RES cells [5] is on record as “no significant internalization”.
